We go through 1 compound from publication PMC7076385, “Evaluation of the Solid Dispersion System Engineered from Mesoporous Silica and Polymers for the Poorly Water Soluble Drug Indomethacin: In Vitro and In Vivo” (Pharmaceutics, 2020).

Converted amounts (≈) assume the structure as drawn.

Series [1] is described as follows: In vitro dissolution, USP II paddle method. The class given is physicochemical. The note with it: at 90 min, pH 6.8 PBS. The protocol: The optimum ratios of all solid dispersion carriers were selected by drug release experiments in vitro. In vitro dissolution studies on pure IMC and SDs with different carriers were carried out using the United States Pharmacopeia Apparatus II (USP II) paddle method (100 rpm, 37 °C, and 250 mL pH 6.8 phosphate buffer solutions) with a ZRS-8G dissolution tester (Shanghai, China). Ten milligrams of sample powder was placed in the dissolution medium, and 5 mL of pH 6.8 phosphate buffer solution (PBS, artificial intestinal fluid) was withdrawn at pre-designed time intervals (0, 5, 10, 15, 20, 30, 40, 50, 60 and 90 min) prior to filtration. The concentration of samples was analyzed using an UV spectrophotometer (756 PC UV-2200, Shanghai, China) at 320 nm. All measurements were repeated three times.

Series [2] in a line: In vivo pharmacokinetic study after oral administration. The note with it: male, Sprague-Dawley, rat, plasma, rats, 40 mg/kg. The protocol: Male Sprague–Dawley rats (body weight 200 ± 20 g) were randomly divided into three groups (n = 3). Sprague–Dawley rats (200 ± 20 g) were obtained from Animal Experiment Center of Shanghai Institute of Material Medica, Shanghai, China. All animal experiments were performed by strictly following Institutional Animal Care and Use Committee (IACUC) guidelines (71044, 10 August 2019). Prior to the experiments, the rats were fasted overnight with free access to water. Aqueous suspensions of IMC, SDs with MSNs (F3), SDs with MSNs and Kollicoat IR (F6), and SDs with MSNs and HPMC (F9) at 40 mg/kg were orally administered, respectively, and blood samples (0.5 mL) were collected at different time points (0, 0.5, 1, 2, 4, 6, 8, 12, and 24 h) in microcentrifuge tubes containing heparin by retro-orbital venipuncture technique. The blood samples were immediately centrifuged at 4000 rpm for 10 min, and the supernatant was collected for further processing.
Plasma samples were processed as follows: 200 µL plasma samples were mixed with 20 µL of an internal standard solution (0.5 mg/mL naproxen), 90 µL 10% KH2PO4, and 1 mL dichloromethane, and then the mixture was vortexed for 3 min. Then, the mixture solutions were centrifuged at 10,000 rpm for 4 min, the organic layer was remained, and then the organic layer was evaporated in a gentle stream of nitrogen at room temperature. The residue was suspended in 100 µL of the mobile phase (acetonitrile:0.01 M H3PO4 = 55:45). After vortex mixing and centrifugation, samples were analyzed using HPLC.

Series [3] in a line: Solubility studies (crystalline and amorphous solubility, UV analysis). The note with it: phosphate buffered saline (PBS), pH 6.8 PBS, 25 °C. Type of series: physicochemical. As to the method: The “crystalline solubility” was measured by the following method. An excess amount of crystal IMC powder was added to 10 mL of pH 6.8 PBS. These mixtures were kept at 25 °C and stirred at 300 rpm for 48 h. Ultracentrifugation was performed at 12,000 rpm and 25 °C for 30 min to separate excess solids using an Optima L-100XP ultracentrifuge (Beckman Coulter Inc., Brea, CA, USA). Then 5 mL of the supernatant was taken for ultraviolet (UV) spectroscopy analysis. All samples were prepared in triplicate.
The solubility of the amorphous IMC in the presence of excipients was also determined by calculating the solution concentration evolved from SDs at 25 °C after 48 h. Briefly, IMC–SDs were prepared by solvent evaporation directly from scintillation vials using a rotary evaporator. Then, 10 mL of pH 6.8 PBS was added. Solution concentration measurements were conducted following the ultraviolet (UV) spectroscopy analysis. The concentration of IMC was calculated with a standard curve built before.

The conditions of series [4]: based on Equations (6) and (7); cited from earlier work.

`COc1ccc2c(c1)c(CC(=O)O)c(C)n2C(=O)c1ccc(Cl)cc1` [IMC, Indomethacin]: the “Folds (increase of cumulative dissolution rate compared to pure IMC)” value in series [1] turned out to be 1.00 ± 0.28 folds. Also, the “Cumulative Drug Dissolution Rate (%)” value in series [1] (37 °C, 100 rpm, mean ± SD, n = 3) is on record as 27.43 ± 0.96%. For the same compound, the Tmax in series [2] was 4 h. In series [2] (mean ± SD, n = 3), the AUC(0-t) amounted to 1240 ± 189 µg·h/mL and the Cmax came to 125 ± 3.8 µg/mL. This compound also gave a solubility at 48 h in series [3] of 23 µg/mL (≈ 64.3 µM). The “Hansen solubility parameter δ” value in series [4] is 24.8 MPa^1/2.

The term Tmax denotes the time at which the peak concentration occurs. What is called AUC(0-t) is exposure summed from dosing to a finite time, without extrapolation to infinity. High values mean high exposure, low ones low exposure. In general, Cmax refers to the highest concentration seen after dosing. Broadly, the solubility is how much of the substance goes into solution per volume. Low values mean little dissolved substance, high ones much dissolved substance.
